Assay results: PMC7721636 (Metabolic Engineering Communications, 2020)

Target: T1, Prk (Synechocystis sp. PCC 6803, UniProt P37101)
T1 sequence (P37101 1-332): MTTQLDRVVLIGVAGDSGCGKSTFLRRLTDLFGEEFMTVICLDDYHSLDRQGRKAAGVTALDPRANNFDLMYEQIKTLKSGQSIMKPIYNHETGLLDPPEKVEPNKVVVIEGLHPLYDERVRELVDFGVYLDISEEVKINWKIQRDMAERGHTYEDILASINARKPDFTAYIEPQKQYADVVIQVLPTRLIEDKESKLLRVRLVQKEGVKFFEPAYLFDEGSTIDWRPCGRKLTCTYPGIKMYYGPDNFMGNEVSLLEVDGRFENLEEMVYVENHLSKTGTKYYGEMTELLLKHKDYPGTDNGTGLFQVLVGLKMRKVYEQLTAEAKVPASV
Test: coupled pyruvate kinase/lactate dehydrogenase assay, NADH at […] nm
Format: biochemical

O=C(O)C[C@H](C(=O)O)[C@@H](O)C(=O)O [isocitrate] showed a Ki of 1450 ± 130 µM.
